Assay results reported in ChEMBL document CHEMBL1121785, “Comparison of solution conformational preferences for the hallucinogens bufotenin and psilocin using 360-MHz proton NMR spectroscopy” (J Med Chem, 1981).

Assays:
Format in all cases: physicochemical
[1] = Partition coefficient of octanol and water was determined
[2] = Partition coefficient (logP); details: octanol/water
[3] = True partition coefficient corrected for ionization was determined; details: octanol/water

Structure (SMILES)	Poct [1]	logP [2]	pKa [3]
CN(C)CCc1c[nH]c2ccc(O)cc12 [BUFOTENINE]	0.16	1.19	
CN(C)CCc1c[nH]c2cccc(O)c12 [PSILOCIN]	0.68	1.45	3.3
